From patent EP1708721B1, “MYOCARDIAL PERFUSION IMAGING USING ADENOSINE RECEPTOR AGONISTS” (Gilead Sciences, Inc., priority 2004, dated 2005)
≈ marks a conversion by molar mass, not a printed value. Where two headings read alike, the source gives them in different places.

Assays:
[1] = solubility in water; assay type: physicochemical
Experimental: CVT-3146 has solubility in water of about 50 micrograms/mL. Therefore, CVT-3146 can be dissolved and administered in water so long as the desired weight amount of CVT-3146 can be administered in an acceptable volume. For example, a preferred dose of about 400 micrograms can be administered in 8 mL of water. If this volume is too great for administration purposes, or if the pharmaceutical composition will be stored at other than room temperature (RT), then additional ingredients can be added to the composition to increase the solubility of CVT-3146 in the composition and/or to provide the resulting pharmaceutical composition with other improved properties such as improved stability and storage properties. Pharmaceutical compositions of this invention may include up to about 1 milligram/mL of CVT-3146. It is preferred that pharmaceutical compositions including CVT-3146 include from 50 to 250 micrograms/mL, and more preferably from 50 to 150 micrograms/mL of CVT-3146.

[2] = tested on: humans; test: Example 1: open label study, CBFv by Doppler flow wire after IV bolus in catheterization patients; assay type: in vivo
Experimental: (§1) The purpose of this open label study was to determine the magnitude and duration of effect of CVT-3146 (10-500 µg) on CBFv in humans.
METHODS: Patients undergoing a clinically indicated coronary catheterization with no more than a 70% stenosis in any coronary artery and no more than a 50% stenosis of the study vessel had CBFv determined by Doppler flow wire. Study subject were selected after measuring baseline and peak CBFv after an intracoronary (IC) injection of 18 µg of Ado. Twenty-three patients, who were identified as meeting the study criteria of having a peak to baseline CBFv ratio of ≥ 2.5 in response to Adenosine, received a rapid (≤ 10 sec) peripheral IV bolus of CVT-3146; Doppler signals were stable and interpretable over the time-course of the increase in CBFv in 17 patients.

[3] = half-life of CVT-3146 (background statement); settings: in vivo; species not stated; read-out: initial half-life
Experimental: as §1

[4] = Example 3: pharmacokinetic profile after a single IV bolus, three-compartment open model; assay type: in vivo, human; settings: for Vc / Vd / half-life / clearance: Mean (SD); for Vd / half-life / clearance: intravenous; for Vd: read-out: Vss
Experimental: This Example is a study performed to evaluate (1) the maximum tolerated dose of CVT-3146 and (2) the pharmacokinetic profile of CVT-3146 in healthy volunteers, after a single IV bolus dose.
CVT-3146 was administered as an IV bolus (20 seconds) in ascending doses of […], 10, 20 and 30 µg/kg.
Patient safety was monitored by ECG, laboratory assessments, and collection of vital signs and adverse events. Pharmacokinetics: • Plasma samples were drawn during supine phase (Days 1 and 2) at 0, 1, 2, 3, 4, 5, 7,10, 15, 20, 30, 45 minutes after dosing and at 1, 1.5., 2, 4, 6, 8,12 and 24 hours after dosing. Urine was collected for 24 hours for […] excretion. Pharmacodynamics: • The study evaluated the relationship of changes in heart rate to dose in both standing and supine positions and plasma concentration in the supine position.
A three-compartment open model was fit to the data using observed Tmax (1-4 minutes) as the duration of a zero-order infusion. Reliable parameter estimates were obtained for dose of 1-30 µg/kg. Parameters are summarized in the following (Table 2): Table 2

[5] = tested on: subjects (26 men, 9 women); test: Example 6: stress/rest SPECT myocardial perfusion imaging, adenosine versus CVT-3146; assay type: in vivo, human
Experimental: To determine the ability of CVT-3146 to produce coronary hyperemia and accurately detect CAD, 35 subjects (26 men, 9 women; 67±10 years) underwent both A and CVT-3146 stress/rest MPI, with 10.0±9.1 days between studies. […] CVT-3146 [400 mcg (n=18), 500 mcg (n=17)] was administered as an IV bolus immediately followed by a saline flush, and then a Tc-99m radiopharmaceutical [sestamibi (n=34), tetrofosmin (n=1)]. SPECT images were uniformly processed, intermixed with control studies (normal and fixed-only defects), and interpreted by three observers in a blinded fashion using a 17-segment model. Quantitative analysis was also performed using 4D MSPECT. In addition to three separate readings, a consensus interpretation was performed and then a direct, same-screen comparison of A and CVT-3146 images undertaken to determine relative differences, using 5 regions per study.

[6] = tested on: anesthetized dog; test: Example 4: blood flow velocity in various vascular beds, intravascular Doppler catheter; assay type: in vivo; settings: 1.0 µg/kg intravenous bolus
Description: The effects of CVT-3146 were quantified as the average peak blood flow velocity (APV) using intravascular Doppler transducer tipped catheter. Heart rate (HR) and systemic arterial blood pressure (BP) were also monitored. […] Increased blood flow velocity was associated with a small transient increase in HR (16 bpm) and decrease in BP (12 mmHg).

[7] = direct comparison of A and CVT-3146 images, 5 regions per study

## CNC(=O)c1cnn(-c2nc(N)c3ncn([C@@H]4O[C@H](CO)[C@@H](O)[C@H]4O)c3n2)c1 [CVT-3146, (1-{9-[(4S,2R,3R,5R)-3,4-dihydroxy-5-(hydroxymethyl)oxolan-2-yl]-6-aminopurin-2-yl}pyrazol-4-yl)-N-methylcarboxamide]
[1]
  solubility: ~50 µg/mL (≈ 128 µM)
[2]; 300 µg IV bolus
  duration of CBFv augmentation (≥ 2-fold increase in CBFv): 4.0 ± 4.9 min
[2]; 500 µg IV bolus
  duration of CBFv augmentation (≥ 2-fold increase in CBFv): 6.9 ± 7.6 min
[2]; 500 µg IV bolus (n=3)
  maximal decrease in systolic blood pressure (BP): 8.7 ± 7.6
  maximal increase in heart rate (HR): 18.7 ± 4.0
[2]; 3 patients receiving the 500 µg dose
  Adverse events (AEs): No AEs were noted
[2]; 10-500 µg IV bolus, nausea, flushing, headache, mild and self-limited
  Adverse events (AEs): infrequent
[2]; IV bolus, doses of 100 µg (n=3), 300 µg (n=4) and 500 µg (n=2), mean ± SD
  peak to baseline ratio (CBFv): 3.2 ± 0.6
[3]
  half-life: 3 min
[4]; Dose 1 µg/kg, N=3
  Vc: 9.84 (4.12) L
[4]; Dose 3 µg/kg, N=4
  Vc: 13.7 (6.06) L
[4]; Dose 10 µg/kg, N=4
  Vc: 17.9 (6.11) L
[4]; Dose 20 µg/kg, N=8
  Vc: 12.5 (5.83) L
[4]; Dose 30 µg/kg, N=3
  Vc: 15.7 (4.59) L
[4]; Total (doses 1-30 µg/kg), N=22
  Vc: 13.8 (5.67) L
[4]; human, plasma, 1 ug/kg, N=3
  Vd: 69 L
[4]; human, plasma, 1 ug/kg, N=3, read-out: a Half-life
  half-life: 2.14 min
[4]; human, plasma, 1 ug/kg, N=3, read-out: β Half-life
  half-life: 8.93 min
[4]; human, plasma, 1 ug/kg, N=3, read-out: λ Half-life
  half-life: 99 min
[4]; human, plasma, 3 ug/kg, N=4
  Vd: 90 L
[4]; human, plasma, 3 ug/kg, N=4, read-out: a Half-life
  half-life: 3.11 min
[4]; human, plasma, 3 ug/kg, N=4, read-out: β Half-life
  half-life: 17.2 min
[4]; human, plasma, 3 ug/kg, N=4, read-out: λ Half-life
  half-life: 130 min
[4]; human, plasma, 10 ug/kg, N=4
  Vd: 101 L
[4]; human, plasma, 10 ug/kg, N=4, read-out: a Half-life
  half-life: 4.15 min
[4]; human, plasma, 10 ug/kg, N=4, read-out: β Half-life
  half-life: 50.2 min
[4]; human, plasma, 10 ug/kg, N=4, read-out: λ Half-life
  half-life: 132 min
[4]; human, plasma, 20 ug/kg, N=8
  Vd: 75.2 L
[4]; human, plasma, 20 ug/kg, N=8, read-out: a Half-life
  half-life: 4.69 min
[4]; human, plasma, 20 ug/kg, N=8, read-out: β Half-life
  half-life: 32.6 min
[4]; human, plasma, 20 ug/kg, N=8, read-out: λ Half-life
  half-life: 117 min
[4]; human, plasma, 30 ug/kg, N=3
  Vd: 89.6 L
[4]; human, plasma, 30 ug/kg, N=3, read-out: a Half-life
  half-life: 3 min
[4]; human, plasma, 30 ug/kg, N=3, read-out: β Half-life
  half-life: 14 min
[4]; human, plasma, 30 ug/kg, N=3, read-out: λ Half-life
  half-life: 99.4 min
[4]; human, plasma, Total (doses 1-30 µg/kg), N=22
  Vd: 75.3 L
[4]; human, plasma, Total (doses 1-30 µg/kg), N=22, read-out: a Half-life
  half-life: 3.73 min
[4]; human, plasma, Total (doses 1-30 µg/kg), N=22, read-out: β Half-life
  half-life: 27.2 min
[4]; human, plasma, Total (doses 1-30 µg/kg), N=22, read-out: λ Half-life
  half-life: 86.4 min
[4]; male, human, plasma, 1 ug/kg, N=3
  clearance: 737 mL/min
[4]; male, human, plasma, 3 ug/kg, N=4
  clearance: 668 mL/min
[4]; male, human, plasma, 10 ug/kg, N=4
  clearance: 841 mL/min
[4]; male, human, plasma, 20 ug/kg, N=8
  clearance: 743 mL/min
[4]; male, human, plasma, 30 ug/kg, N=3
  clearance: 1020 mL/min
[4]; male, human, plasma, Total (doses 1-30 µg/kg), N=22
  clearance: 768 mL/min
[4]; male, human, plasma, IV bolus, supine, read-out: observed Tmax
  Tmax: 1 to 4 min
[5]; SPECT MPI, 4D MSPECT, CVT-3146 400 or 500 mcg IV bolus, A infusion
  summed scores following stress, quantitative methods of analysis: 13.6±1.6
[5]; SPECT MPI, 17-segment model, CVT-3146 400 or 500 mcg IV bolus, A infusion
  summed scores following stress, visual: 13.2±1.3
[5]; [7]
  regional concordance for ischemia extent: 86.3%
  regional concordance for ischemia severity: 83.4%
[6]
  decrease in BP: 12 mmHg
  small transient increase in HR: 16 bpm
  time to dissipation of effect on blood flow velocity: less than ten
  time to peak of effect on blood flow velocity: less than 30 sec
[6]; brain arterial vasculature (BA)
  APV increased (average peak blood flow velocity): 1.4 ± 0.1 fold
[6]; forelimb artery (FA)
  APV increased (average peak blood flow velocity): 1.2 ± 0.1 fold
[6]; left circumflex coronary artery (LCX)
  APV increased (average peak blood flow velocity): 3.1 ± 0.2 fold
[6]; pulmonary artery (PA)
  APV increased (average peak blood flow velocity): 1.1 ± 0.01 fold
